From ChEMBL document CHEMBL2146358, “Discovery of amide based fibrates as possible antidyslipidemic and antioxidant agents” (2012)

Columns and labels:
Format in all cases: functional
[1] = tested on: Rattus norvegicus; test: Antidyslipidemic activity in Triton fed hyperlipidemic Charles Foster rat assessed as reduction in plasma phospholipids at 100 mg/kg, po; parameters: scale not given: the % may be the effect or the level left
[2] = tested on: Rattus norvegicus; test: Antidyslipidemic activity in Triton fed hyperlipidemic Charles Foster rat assessed as increase in post heparin lipoprotein lipase activity by measuring free fatty acids formation rate per ml of plasma at 100 mg/kg, po
[3] = tested on: Rattus norvegicus; test: Antidyslipidemic activity in Triton fed hyperlipidemic Charles Foster rat assessed as reduction in plasma triglyceride level at 100 mg/kg, po; parameters: scale not given: the % may be the effect or the level left
[4] = tested on: Rattus norvegicus; test: Antidyslipidemic activity in Triton fed hyperlipidemic Charles Foster rat assessed as reduction in plasma total cholesterol at 100 mg/kg, po; parameters: scale not given: the % may be the effect or the level left
[5] = Antioxidant activity in microsomes assessed as inhibition of lipid peroxidation by measuring MDA level at 200 ug/ml by spectrophotometry based TBARS method
[6] = Antioxidant activity assessed as inhibition of hydroxyl radical generation at 200 ug/ml by spectrophotometry
[7] = Antioxidant activity assessed as inhibition of superoxide anion radical generation at 200 ug/ml by spectrophotometry
[8] = species: Rattus norvegicus; test: Increase in lipoprotein lipase activity in Triton fed hyperlipidemic Charles Foster rat plasma assessed as free fatty acids formation rate per ml of plasma relative to untreated Triton control; parameters: concentration or dose not given beside the values

CCOC(=O)COc1ccc(NC(=O)COc2ccc3ccccc3c2)cc1
Activity [1]: 14%
Activity [2]: 15%
Activity [3]: 11%
Activity [4]: 14%

CCOC(=O)C(C)Oc1ccc(NC(=O)COc2ccccc2Cl)cc1 (stereo not drawn)
inhibition [5]: 26%
Activity [1]: 26%
inhibition [6]: 26%
Activity [2]: 23%
inhibition [7]: 33%
Activity [8]: 21%
Activity [3]: 25%
Activity [4]: 25%

CCOC(=O)C(CC)Oc1ccc(NC(=O)CSc2ccc3ccccc3c2)cc1 (stereo not drawn)
Activity [1]: 4%
Activity [2]: 7%
Activity [3]: 5%
Activity [4]: 6%

CCOC(=O)COc1ccc(NC(=O)COc2ccccc2Cl)cc1
Activity [1]: 9%
Activity [2]: 9%
Activity [3]: 6%
Activity [4]: 6%

CCOC(=O)CCCOc1ccc(NC(=O)COc2ccccc2C(C)CC)cc1 (stereo not drawn)
Activity [1]: 10%
Activity [2]: 13%
Activity [3]: 11%
Activity [4]: 9%

Cc1ccc(C)c(OCCCC(C)(C)C(=O)O)c1 [GEMFIBROZIL]
Activity [1]: 33%
Activity [2]: 31%
Activity [8]: 30%
Activity [3]: 33%
Activity [4]: 31%

CCOC(=O)C(CC)Oc1ccc(NC(=O)COc2ccccc2C(C)CC)cc1 (stereo not drawn)
Activity [1]: 9%
Activity [2]: 5%
Activity [3]: 9%
Activity [4]: 10%

CCOC(=O)CCCOc1ccc(NC(=O)COc2ccc(Cl)cc2Cl)cc1
Activity [1]: 8%
Activity [2]: 12%
Activity [3]: 7%
Activity [4]: 9%

CCOC(=O)C(C)Oc1ccc(NC(=O)CSc2ccc3ccccc3c2)cc1 (stereo not drawn)
inhibition [5]: 35%
Activity [1]: 24%
inhibition [6]: 28%
Activity [2]: 24%
inhibition [7]: 31%
Activity [8]: 26%
Activity [3]: 28%
Activity [4]: 26%

OC[C@@H](O)[C@@H](O)[C@H](O)[C@H](O)CO
inhibition [6]: 41%

CCOC(=O)C(C)(C)Oc1ccc(NC(=O)COc2ccc3ccccc3c2)cc1
inhibition [5]: 22%
Activity [1]: 24%
inhibition [6]: 22%
Activity [2]: 23%
inhibition [7]: 30%
Activity [8]: 22%
Activity [3]: 27%
Activity [4]: 25%

CCOC(=O)C(C)(C)Oc1ccc(NC(=O)COc2ccccc2C(C)CC)cc1 (stereo not drawn)
Activity [1]: 10%
Activity [2]: 14%
Activity [3]: 6%
Activity [4]: 7%

Cc1c(C)c2c(c(C)c1O)CC[C@@](C)(CCC[C@H](C)CCC[C@H](C)CCCC(C)C)O2
inhibition [5]: 49%

Oc1ncnc2[nH]ncc12
inhibition [7]: 41%

CCOC(=O)CCCOc1ccc(NC(=O)COc2ccc3ccccc3c2)cc1
inhibition [5]: 29%
Activity [1]: 19%
inhibition [6]: 25%
Activity [2]: 17%
inhibition [7]: 27%
Activity [3]: 22%
Activity [4]: 21%

CCOC(=O)C(CC)Oc1ccc(NC(=O)COc2ccc(Cl)cc2Cl)cc1 (stereo not drawn)
Activity [1]: 3%
Activity [2]: 4%
Activity [3]: 5%
Activity [4]: 2%

CCOC(=O)CCCOc1ccc(NC(=O)COc2ccccc2Cl)cc1
Activity [1]: 6%
Activity [2]: 12%
Activity [3]: 8%
Activity [4]: 9%

CCOC(=O)C(C)Oc1ccc(NC(=O)COc2ccc3ccccc3c2)cc1 (stereo not drawn)
inhibition [5]: 22%
Activity [1]: 25%
inhibition [6]: 25%
Activity [2]: 26%
inhibition [7]: 25%
Activity [8]: 24%
Activity [3]: 26%
Activity [4]: 23%

CCOC(=O)C(CC)Oc1ccc(NC(=O)COc2ccc3ccccc3c2)cc1 (stereo not drawn)
Activity [1]: 9%
Activity [2]: 12%
Activity [3]: 13%
Activity [4]: 12%

CCOC(=O)C(C)Oc1ccc(NC(=O)COc2ccccc2C(C)CC)cc1 (stereo not drawn)
inhibition [5]: 25%
Activity [1]: 23%
inhibition [6]: 25%
Activity [2]: 15%
inhibition [7]: 25%
Activity [8]: 16%
Activity [3]: 24%
Activity [4]: 24%

CCOC(=O)C(C)(C)Oc1ccc(NC(=O)COc2ccc(Cl)cc2Cl)cc1
Activity [1]: 4%
Activity [2]: 9%
Activity [3]: 13%
Activity [4]: 8%

CCOC(=O)C(C)Oc1ccc(NC(=O)COc2ccc(Cl)cc2Cl)cc1 (stereo not drawn)
Activity [1]: 7%
Activity [2]: 10%
Activity [3]: 10%
Activity [4]: 8%
